# Literature values in US20050079205A1, “Oleamide-containing composition for animal consumption” (priority 2003, published 2005).
# Experiments:
# lactating Jersey cows = details: feed supplemented with up to 3.5% oleamide; cited from earlier work
# Holstein cows = details: 4.2% oleamide through feed or ruminal cannula; cited from earlier work
compound,measurement,setting,value
"CCCCCCCC/C=C\CCCCCCCC(N)=O [oleamide, cis-9-octadecenioamide]",dry matter intake,lactating Jersey cows,reduction in dry matter intake
same,dry matter intake,Holstein cows,reduction in dry matter intake
